The target of assay [1] is T1, oxygenase domain of iNOS (iNOSoxy) (Mus musculus, UniProt P29477).
T1 construct: the oxygenase domain of nNOS (nNOSoxy) and iNOS (iNOSoxy); made in house; host or cells: Escherichia coli
T1 sequence (P29477 1-498 limits assumed): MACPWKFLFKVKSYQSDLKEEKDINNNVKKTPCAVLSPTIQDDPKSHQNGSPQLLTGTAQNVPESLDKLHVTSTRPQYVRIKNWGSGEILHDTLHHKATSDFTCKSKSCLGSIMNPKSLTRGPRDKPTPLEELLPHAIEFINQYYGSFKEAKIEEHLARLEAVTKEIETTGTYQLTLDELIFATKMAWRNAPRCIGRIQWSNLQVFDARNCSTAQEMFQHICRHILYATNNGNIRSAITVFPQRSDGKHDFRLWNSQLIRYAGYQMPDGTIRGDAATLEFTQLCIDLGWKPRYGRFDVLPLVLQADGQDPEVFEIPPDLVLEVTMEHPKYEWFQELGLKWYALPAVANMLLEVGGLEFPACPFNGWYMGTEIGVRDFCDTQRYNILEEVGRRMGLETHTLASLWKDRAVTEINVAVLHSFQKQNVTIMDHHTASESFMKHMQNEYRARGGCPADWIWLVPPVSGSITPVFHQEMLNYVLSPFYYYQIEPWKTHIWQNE
The experiment in a line: UV-visible difference spectroscopy titration of iNOSoxy. The format is binding. As to conditions: UV/Vis difference spectroscopy, ± SD, three experiments; read-out: Apparent equilibrium constant Ks iNOSoxy. The source says: (§1) We performed UV–visible difference spectroscopy to analyze the interaction mode of some inhibitors with the heme-active site of NOS [54]. We have studied the effects of dipeptide-like compounds 7, 17, 19, 23, and 27 and 1,2,4-oxadiazole 35 on the UV–visible spectra of the oxygenase domain of nNOS (nNOSoxy) and iNOS (iNOSoxy). As expected, when added stepwise to n- and iNOSoxy, all selected compounds elicited different spectra with a trough at ~425 nm and a peak at ~395 nm, similar to the substrate L-arginine. This profile is characteristic of type I interactions, meaning that they are bound in close proximity to the heme prosthetic group and shifted the spin state equilibrium to the pentacoordinated heme–Fe^III state. Double reverse plotting of the differences in absorbance between the peak at ~395 nm and valley at ~425 nm (ΔA395–425 nm) as a function of the concentration of the added compounds allowed calculating apparent binding constants (Ks) (Table 3). The reference inhibitor SEITU [55] tightly bound both NOS isoforms with high affinity but no selectivity. With the exception of the dipeptide-like 27 and the heterocyclic analog 35, which similarly interacted with both proteins, other compounds preferentially bound nNOSoxy over iNOSoxy with apparent affinities close to SEITU for this isoform.
(§2) Full-length recombinant rat nNOS, mouse iNOS, bovine eNOS, and the heme domains of rat brain nNOS and mouse iNOS were expressed in Escherichia coli and purified as described previously.
(§3) This study was performed as previously described.

For assay [2], the target named is T2, oxygenase domain of nNOS (nNOSoxy) (Rattus norvegicus, UniProt P29476).
T2 construct: the oxygenase domain of nNOS (nNOSoxy) and iNOS (iNOSoxy); made in house; host or cells: Escherichia coli
T2 sequence (P29476 1-720 limits assumed): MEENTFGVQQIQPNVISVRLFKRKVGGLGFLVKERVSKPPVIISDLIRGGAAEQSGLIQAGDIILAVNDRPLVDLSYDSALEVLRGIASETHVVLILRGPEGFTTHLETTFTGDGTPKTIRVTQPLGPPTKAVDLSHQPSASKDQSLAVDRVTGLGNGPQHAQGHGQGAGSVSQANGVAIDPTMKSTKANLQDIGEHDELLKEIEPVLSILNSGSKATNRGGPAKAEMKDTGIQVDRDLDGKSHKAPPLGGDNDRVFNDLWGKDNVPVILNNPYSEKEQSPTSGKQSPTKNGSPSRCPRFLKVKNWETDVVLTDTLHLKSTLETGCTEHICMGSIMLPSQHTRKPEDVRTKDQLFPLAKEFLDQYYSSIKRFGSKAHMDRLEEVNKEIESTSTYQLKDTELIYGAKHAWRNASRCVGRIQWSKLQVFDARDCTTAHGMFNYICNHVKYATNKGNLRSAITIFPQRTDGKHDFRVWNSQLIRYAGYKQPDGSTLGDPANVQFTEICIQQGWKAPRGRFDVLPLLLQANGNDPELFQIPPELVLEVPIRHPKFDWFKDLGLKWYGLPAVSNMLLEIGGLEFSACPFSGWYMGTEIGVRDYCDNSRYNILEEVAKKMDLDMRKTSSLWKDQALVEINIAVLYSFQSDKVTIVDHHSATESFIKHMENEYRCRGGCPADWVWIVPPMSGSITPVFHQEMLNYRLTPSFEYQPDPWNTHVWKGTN
The experiment in a line: UV-visible difference spectroscopy titration of nNOSoxy. The format is binding. As to conditions: UV/Vis difference spectroscopy, ± SD, three experiments; read-out: Apparent equilibrium constant Ks nNOSoxy.
Source text: as §1, §2, §3

A further assay concerns the target T3, bovine eNOS (Bos taurus, UniProt P29473).
T3 construct: Full-length recombinant rat nNOS, mouse iNOS, bovine eNOS; made in house; host or cells: Escherichia coli
The experiment in a line: NOS inhibition, oxyhemoglobin (hemoglobin capture) test, recombinant eNOS. As to conditions: dipeptide-like series; recombinant enzyme, 10 µM arginine, triplicate; NI = <50% inhibition at 100 μM; read-out: IC50 (μM) eNOS (Bovine). The format is biochemical.

Another assay concerns the target T4, rat nNOS (Rattus norvegicus, UniProt P29476).
T4 construct: Full-length recombinant rat nNOS, mouse iNOS, bovine eNOS; made in house; host or cells: Escherichia coli
The experiment in a line: NOS inhibition, oxyhemoglobin (hemoglobin capture) test, recombinant nNOS. The format is biochemical. As to conditions: dipeptide-like series; recombinant enzyme, 10 µM arginine, triplicate; NI = <50% inhibition at 100 μM. The gist of the method: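 Full-length E. coli-expressed recombinant enzyme; NO formation followed kinetically at 401 nm via oxyhemoglobin capture at 30 °C in 100 mM Hepes pH 7.5 with NADPH, BH4, FAD, FMN, DTT; arginine 20 µM (iNOS) or 10 µM (nNOS, plus calmodulin and CaCl2). Screened at 100 and 10 μM; IC50 if >50% inhibition at 100 μM.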

The next assay concerns INS-1 cells (nNOS). Kind of assay: Glucose-induced insulin secretion. Format: cell-based. As to conditions: 5.6 mM glucose, no IL-1β, 1 h, compounds 500 µM to 5 mM, L-NAME 5 mM. As to the method: Indeed, pancreatic β-cells are known to constitutively express the nNOS isoform, which negatively modulates glucose-induced insulin secretion.
The insulin-secreting cell line INS-1 (a gift from Prof. C. Wolheim, Geneva, Switzerland) was cultured in RPMI-1640 supplemented with 10% FCS, 100 units/mL penicillin, 100 µg/mL streptomycin, 2 mM L-glutamine, 10 mM HEPES, 1 mM sodium pyruvate, and […] 2-mercaptoethanol, according to M. Asfari et al.’s method.
The functional effects of compounds were evaluated on INS-1 cells. Cells were preincubated for 1 h at 37 °C in a Krebs–Ringer bicarbonate buffer (108 mM NaCl, 1.19 mM KH2PO4, 4.74 mM KCl, 2.54 mM CaCl2, 1.19 mM MgSO4·7H2O, and 18 mM NaHCO3) containing 2 g/L BSA in the absence of glucose. After removal of the medium, the cells were stimulated for another hour at 37°C in the same buffer in the presence of 5.6 mM glucose and the presence of increasing concentrations of L-NAME or compounds (from 500 µM to 5 mM). At the end of the incubation period, the medium was collected, and the insulin was measured using an insulin high-range assay kit (CisBio, Codolet, France). Data are expressed as means ± SEM of the experiments (indicated in the result part).

This is an account of results in article PMC10343299, “S-Ethyl-Isothiocitrullin-Based Dipeptides and 1,2,4-Oxadiazole Pseudo-Dipeptides: Solid Phase Synthesis and Evaluation as NO Synthase Inhibitors” (Molecules, 2023).

T3 sequence (P29473 whole entry): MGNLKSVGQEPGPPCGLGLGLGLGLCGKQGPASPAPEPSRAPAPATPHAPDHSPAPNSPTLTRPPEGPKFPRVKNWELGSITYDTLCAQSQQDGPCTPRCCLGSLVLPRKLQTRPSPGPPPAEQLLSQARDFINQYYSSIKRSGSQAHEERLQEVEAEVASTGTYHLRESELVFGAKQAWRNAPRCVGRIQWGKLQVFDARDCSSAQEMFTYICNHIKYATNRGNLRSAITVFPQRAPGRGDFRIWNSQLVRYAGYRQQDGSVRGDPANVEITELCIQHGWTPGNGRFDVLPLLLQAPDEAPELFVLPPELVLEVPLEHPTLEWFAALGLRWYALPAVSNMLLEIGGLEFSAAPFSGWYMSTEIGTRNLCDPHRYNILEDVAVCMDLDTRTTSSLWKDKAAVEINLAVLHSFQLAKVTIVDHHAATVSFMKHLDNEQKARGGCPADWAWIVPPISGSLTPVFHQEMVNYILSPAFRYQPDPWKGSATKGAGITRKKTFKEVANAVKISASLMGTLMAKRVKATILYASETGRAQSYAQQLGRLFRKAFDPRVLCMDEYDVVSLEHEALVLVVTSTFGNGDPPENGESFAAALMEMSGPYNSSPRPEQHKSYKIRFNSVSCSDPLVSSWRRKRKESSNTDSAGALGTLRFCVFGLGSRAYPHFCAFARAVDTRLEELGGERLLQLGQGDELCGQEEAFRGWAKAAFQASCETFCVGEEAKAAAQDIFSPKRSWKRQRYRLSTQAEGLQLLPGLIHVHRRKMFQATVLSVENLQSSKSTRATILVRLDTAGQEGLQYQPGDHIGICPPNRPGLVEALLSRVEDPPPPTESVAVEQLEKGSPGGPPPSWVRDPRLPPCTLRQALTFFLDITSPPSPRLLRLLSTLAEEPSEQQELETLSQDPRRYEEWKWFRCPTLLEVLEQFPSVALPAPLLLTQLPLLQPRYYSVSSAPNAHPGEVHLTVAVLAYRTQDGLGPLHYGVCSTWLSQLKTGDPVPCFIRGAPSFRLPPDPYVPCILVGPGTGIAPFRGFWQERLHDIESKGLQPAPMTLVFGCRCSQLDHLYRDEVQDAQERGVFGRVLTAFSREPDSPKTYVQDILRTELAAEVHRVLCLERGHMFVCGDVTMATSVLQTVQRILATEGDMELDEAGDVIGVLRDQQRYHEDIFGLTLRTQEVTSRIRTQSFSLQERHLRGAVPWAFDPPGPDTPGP
T4 sequence (P29476 whole entry): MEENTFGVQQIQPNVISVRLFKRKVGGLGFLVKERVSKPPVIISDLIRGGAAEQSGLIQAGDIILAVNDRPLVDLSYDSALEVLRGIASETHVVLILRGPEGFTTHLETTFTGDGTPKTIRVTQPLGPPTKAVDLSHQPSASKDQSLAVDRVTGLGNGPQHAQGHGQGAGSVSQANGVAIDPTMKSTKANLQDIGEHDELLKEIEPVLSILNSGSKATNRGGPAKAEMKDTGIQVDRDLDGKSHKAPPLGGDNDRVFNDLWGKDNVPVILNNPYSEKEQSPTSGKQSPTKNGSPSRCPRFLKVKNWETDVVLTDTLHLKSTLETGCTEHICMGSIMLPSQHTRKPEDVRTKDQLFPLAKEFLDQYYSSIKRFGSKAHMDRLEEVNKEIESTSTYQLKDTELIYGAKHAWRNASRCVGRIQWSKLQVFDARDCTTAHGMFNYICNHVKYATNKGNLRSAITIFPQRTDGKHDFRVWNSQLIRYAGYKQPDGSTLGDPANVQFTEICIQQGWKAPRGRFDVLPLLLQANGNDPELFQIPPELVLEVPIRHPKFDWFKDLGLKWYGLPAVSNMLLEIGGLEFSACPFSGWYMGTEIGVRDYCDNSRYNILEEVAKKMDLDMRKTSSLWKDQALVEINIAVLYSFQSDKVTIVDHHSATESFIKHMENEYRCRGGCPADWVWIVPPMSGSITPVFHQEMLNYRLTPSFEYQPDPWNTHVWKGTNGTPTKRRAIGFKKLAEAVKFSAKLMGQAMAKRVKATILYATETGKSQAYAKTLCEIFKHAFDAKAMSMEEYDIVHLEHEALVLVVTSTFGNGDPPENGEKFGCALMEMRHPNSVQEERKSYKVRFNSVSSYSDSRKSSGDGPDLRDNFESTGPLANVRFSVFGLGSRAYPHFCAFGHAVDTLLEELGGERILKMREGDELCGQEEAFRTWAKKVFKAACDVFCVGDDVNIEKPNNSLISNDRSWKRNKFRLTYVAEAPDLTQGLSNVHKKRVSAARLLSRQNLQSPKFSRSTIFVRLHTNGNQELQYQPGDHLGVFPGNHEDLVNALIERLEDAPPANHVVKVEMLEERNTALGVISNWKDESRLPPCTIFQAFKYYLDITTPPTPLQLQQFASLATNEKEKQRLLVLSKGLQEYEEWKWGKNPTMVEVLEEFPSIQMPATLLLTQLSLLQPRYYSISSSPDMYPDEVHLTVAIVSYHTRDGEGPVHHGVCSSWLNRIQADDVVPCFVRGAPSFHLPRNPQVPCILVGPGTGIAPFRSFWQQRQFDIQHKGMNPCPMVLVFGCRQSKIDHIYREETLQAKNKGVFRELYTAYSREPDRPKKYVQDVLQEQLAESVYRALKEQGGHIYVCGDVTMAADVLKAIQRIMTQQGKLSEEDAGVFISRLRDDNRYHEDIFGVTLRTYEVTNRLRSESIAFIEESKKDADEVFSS
Procedure for bovine eNOS: The inhibitory effects of all compounds against the three recombinant NOSs (rat nNOS, mouse iNOS, and bovine eNOS) were evaluated in 96-well plates using the oxyhemoglobin test [53].
NOS catalytic activity was measured using the hemoglobin capture assay [53]. The test was performed at 30 °C in 96-well microplates using a final volume of 200 µL. The assay mixture contained 100 µM NADPH, 10 µM BH4, 6 µM HbO2, 100 µM DTT, 5 µM FAD, 5 µM FMN, 10 µM (nNOS and eNOS), or 20 µM (iNOS) arginine, all in a 100 mM Hepes buffer, pH 7.5, and, for constitutive n- and e-NOS, 10 µg/mL calmodulin, and 1 mM CaCl2. The studied compounds were introduced as 2 μL of ×100 concentrated solutions in DMSO, and the control experiments were performed with DMSO or the buffer only. The kinetics of NO production were measured at 401 nm using an Infinite F500 microplate reader (Tecan, Singapore).

As for `CCSC(=N)NCCC[C@H](N)C(=O)N[C@H]1CCCN(Cc2cccc(-c3cccc(C(=O)O)c3)c2)C1` [Compound 27], the Kd was found to be 57.9 ± 8 µM in assay [1] and 70.6 ± 22.8 µM in assay [2]. In addition, the inhibition at 100 µM at bovine eNOS is less than 50%. The half-maximal inhibitory concentration (IC50) (usually the concentration needed to halve the response being measured) at rat nNOS was 9.5 µM. In addition, the “Effect on insulin secretion” value with INS-1 cells (nNOS) is “dose-dependently stimulate glucose insulin secretion with better efficiency than L-NAME”.

Consider `CCSC(=N)NCCC[C@H](N)C(=O)N[C@H]1CCCN(Cc2ccccc2)C1` [Compound 7], for which the Kd in assay [1] was found to be 406 ± 97 µM; in assay [2], 7.1 ± 2.6 µM. At bovine eNOS, the inhibition at 100 µM was less than 50%. On rat nNOS, the half-inhibitory concentration (IC50) worked out at 17.5 µM. In the assay on INS-1 cells (nNOS), the “Effect on insulin secretion” value is “dose-dependently stimulate glucose insulin secretion with better efficiency than L-NAME”.

For `CCSC(=N)NCCC[C@H](N)C(=O)N[C@H]1CCCN(Cc2ccc(Cl)c(C(F)(F)F)c2)C1` [Compound 17], the Kd in assay [1] was 36.4 ± 4.6 µM; in assay [2], 3.6 ± 1.5 µM. Also, the inhibition at 100 µM at bovine eNOS is less than 50%. Also, the half-inhibitory concentration (IC50) on rat nNOS is 5 µM. Moreover, the “Effect on insulin secretion” value in the assay with INS-1 cells (nNOS) is “dose-dependently stimulate glucose insulin secretion with better efficiency than L-NAME”.
